# US12421211B2, “Heterocyclic compounds” (Hoffmann-La Roche Inc., priority 2021, dated 2025)
# Counter-ions that a name gives are not always drawn.
# Tested on: Acinetobacter baumannii ATCC17961
# Test: Antimicrobial susceptibility testing: 90% growth inhibitory concentration (IC90) determination
# Assay type: cell-based
# Settings: 90% growth inhibitory concentration, Acinetobacter baumannii ATCC17961, Iso-Sensitest broth, OD 600 nm over 16 h; formic acid; formate; read-out: ATCC 17961 IC90
# In short: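 Growth inhibition derived in log phase from OD600 kinetics (every 20 minutes, 16h, 35±2° C) of ATCC17961 in Iso-Sensitest medium, inoculum ~5×10^5 CFU/ml. Compounds tested as twofold series, 10 points (e.g. 50 to 0.097 μM final); IC90 and IC50 reported.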
row,IC90,SMILES
1,340 nM,"COCCn1ncc(-c2ccc(-c3cnc(C(=O)Nc4ccc(C(=O)N5CCN(C(=O)C6CC[N+](CC(=O)O)(CC7CNC7)CC6)CC5)c(Cl)c4)n3C)c(F)c2F)c1C (stereo not drawn) [Example B29, 2-[1-(azetidin-3-ylmethyl)-4-[4-[2-chloro-4-[[5-[2,3-difluoro-4-[1-(2-methoxyethyl)-5-methyl-pyrazol-4-yl]phenyl]-1-methyl-imidazole-2-carbonyl]amino]benzoyl]piperazine-1-carbonyl]piperidin-1-ium-1-yl]acetic acid; formic acid; formate]"

# Same assay, conditions: Acinetobacter baumannii, ATCC17961, 16 h, 90% growth inhibitory concentration, Acinetobacter baumannii ATCC17961, Iso-Sensitest broth, OD 600 nm over 16 h; read-out: ATCC 17961 IC90
row,SMILES,IC90
1,"COCCn1ncc(-c2ccc(-c3cnc(C(=O)Nc4ccc(C(=O)N[C@H]5[C@@H]6CN(C(=O)N[C@@H]7C[N+](C)(C)C[C@H]7O)C[C@@H]65)c(Cl)c4)n3C)c(F)c2F)c1C [Example F66, (1S,5R)-6-[[2-chloro-4-[[5-[2,3-difluoro-4-[1-(2-methoxyethyl)-5-methyl-pyrazol-4-yl]phenyl]-1-methyl-imidazole-2-carbonyl]amino]benzoyl]amino]-N-[(3R,4R)-4-hydroxy-1,1-dimethyl-pyrrolidin-1-ium-3-yl]-3-azabicyclo[3.1.0]hexane-3-carboxamide; formate]",29 nM
2,"COCCn1ncc(-c2ccc(-c3cnc(C(=O)Nc4ccc(C(=O)N5CCN(C(=O)CN(C)C)CC5)c(C)c4)n3C)cc2)c1C [Example E14, N-[4-[4-[2-(dimethylamino)acetyl]piperazine-1-carbonyl]-3-methyl-phenyl]-5-[4-[1-(2-methoxyethyl)-5-methyl-pyrazol-4-yl]phenyl]-1-methyl-imidazole-2-carboxamide]",270 nM
3,"Cc1nn(CC(=O)N2CCCCC2)cc1-c1ccc(-c2cnc(C(=O)Nc3ccc(C(=O)N4CCN(C(=O)C5CC[N+](C)(C)CC5)CC4)c(Cl)c3)n2C)c(F)c1F [Example G29, N-[3-chloro-4-[4-(1,1-dimethylpiperidin-1-ium-4-carbonyl)piperazine-1-carbonyl]phenyl]-5-[2,3-difluoro-4-[3-methyl-1-[2-oxo-2-(1-piperidyl)ethyl]pyrazol-4-yl]phenyl]-1-methyl-imidazole-2-carboxamide; formate]",330 nM
4,"Cc1nn(CC(=O)Nc2ccnnc2)cc1-c1ccc(-c2cnc(C(=O)Nc3ccc(C(=O)N4CCN(C(=O)C5CC[N+](C)(C)CC5)CC4)c(Cl)c3)n2C)c(F)c1F [Example G33, N-[3-chloro-4-[4-(1,1-dimethylpiperidin-1-ium-4-carbonyl)piperazine-1-carbonyl]phenyl]-5-[2,3-difluoro-4-[3-methyl-1-[2-oxo-2-(pyridazin-4-ylamino)ethyl]pyrazol-4-yl]phenyl]-1-methyl-imidazole-2-carboxamide; formate]",440 nM
5,"Cc1nn(CCNC(=O)c2ccccn2)cc1-c1ccc(-c2cnc(C(=O)Nc3ccc(C(=O)N4CCN(C(=O)C5CC[N+](C)(C)CC5)CC4)c(Cl)c3)n2C)c(F)c1F [Example H2, N-[2-[4-[4-[2-[[3-chloro-4-[4-(1,1-dimethylpiperidin-1-ium-4-carbonyl)piperazine-1-carbonyl]phenyl]carbamoyl]-3-methyl-imidazol-4-yl]-2,3-difluoro-phenyl]-3-methyl-pyrazol-1-yl]ethyl]pyridine-2-carboxamide; formate]",190 nM
6,"COCCn1cc(-c2ccc(-c3cnc(C(=O)Nc4ccc(C(=O)N5CCN(C(=O)C6CC[N+](C)(C)CC6O)CC5)c(Cl)c4)n3C)c(F)c2F)c(C)n1 (stereo not drawn) [Example D2, N-[3-chloro-4-[4-(3-hydroxy-1,1-dimethyl-piperidin-1-ium-4-carbonyl)piperazine-1-carbonyl]phenyl]-5-[2,3-difluoro-4-[1-(2-methoxyethyl)-3-methyl-pyrazol-4-yl]phenyl]-1-methyl-imidazole-2-carboxamide; formate]",210 nM

# Next, values leading:
row,IC90,SMILES
1,530 nM,"Cn1cc(-c2n[nH]cc2-c2ccc(-c3cnc(C(=O)Nc4ccc(C(=O)N5CCN(C(=O)C6CC[N+](C)(C)CC6)CC5)c(Cl)c4)n3C)c(F)c2F)cn1 [Example F47, N-[3-chloro-4-[4-(1,1-dimethylpiperidin-1-ium-4-carbonyl)piperazine-1-carbonyl]phenyl]-5-[2,3-difluoro-4-[3-(1-methylpyrazol-4-yl)-1H-pyrazol-4-yl]phenyl]-1-methyl-imidazole-2-carboxamide; formate]"
2,170 nM,"COCCn1ncc(-c2ccc(-c3cnc(C(=O)Nc4ccc(C(=O)N5CCC(C(=O)N6CC[N+](C)(CC(N)=O)CC6)CC5)c(Cl)c4)n3C)c(F)c2F)c1C [Example B15, N-[4-[4-[4-(2-amino-2-oxo-ethyl)-4-methyl-piperazin-4-ium-1-carbonyl]piperidine-1-carbonyl]-3-chloro-phenyl]-5-[2,3-difluoro-4-[1-(2-methoxyethyl)-5-methyl-pyrazol-4-yl]phenyl]-1-methyl-imidazole-2-carboxamide; formate]"
3,510 nM,"Cc1c(-c2ccc(-c3cnc(C(=O)Nc4ccc(C(=O)N5CCN(C(=O)C6CC[N+](C)(C)CC6)CC5)c(Cl)c4)n3C)c(F)c2F)cnn1CC(=O)NC(C)(C)C [Example G18, 5-[4-[1-[2-(tert-butylamino)-2-oxo-ethyl]-5-methyl-pyrazol-4-yl]-2,3-difluoro-phenyl]-N-[3-chloro-4-[4-(1,1-dimethylpiperidin-1-ium-4-carbonyl)piperazine-1-carbonyl]phenyl]-1-methyl-imidazole-2-carboxamide; formate]"
4,580 nM,"COCCn1cc(-c2ccc(-c3cnc(C(=O)Nc4ccc(C(=O)N5CCN(C(=O)C6CC[N+](C)(C)CC6)CC5)c(Cl)c4)n3C)c(F)c2F)c(C(F)(F)F)n1 [Example F36, N-[3-chloro-4-[4-(1,1-dimethylpiperidin-1-ium-4-carbonyl)piperazine-1-carbonyl]phenyl]-5-[2,3-difluoro-4-[1-(2-methoxyethyl)-3-(trifluoromethyl)pyrazol-4-yl]phenyl]-1-methyl-imidazole-2-carboxamide; formate]"
5,64 nM,"COCCn1ncc(-c2ccc(-c3cnc(C(=O)Nc4ccc(C(=O)N5CCN(C(=O)C6(N)CC[N+](C)(C)CC6)CC5)c(Cl)c4)n3C)c(F)c2F)c1C [Example D20, N-[4-[4-(4-amino-1,1-dimethyl-piperidin-1-ium-4-carbonyl)piperazine-1-carbonyl]-3-chloro-phenyl]-5-[2,3-difluoro-4-[1-(2-methoxyethyl)-5-methyl-pyrazol-4-yl]phenyl]-1-methyl-imidazole-2-carboxamide; formate]"
6,250 nM,"COCCn1ncc(-c2ccc(-c3cnc(C(=O)Nc4ccc(C(=O)N5CCN(C(=O)C6CC[N+](CC(=O)O)(CC7CNC7)CC6)CC5)c(Cl)c4)n3C)c(C)c2F)c1C (stereo not drawn) [Example B39, 2-[1-(azetidin-3-ylmethyl)-4-[4-[2-chloro-4-[[5-[3-fluoro-4-[1-(2-methoxyethyl)-5-methyl-pyrazol-4-yl]-2-methyl-phenyl]-1-methyl-imidazole-2-carbonyl]amino]benzoyl]piperazine-1-carbonyl]piperidin-1-ium-1-yl]acetic acid; formate]"
7,140 nM,"COCCn1cc(-c2ccc(-c3cnc(C(=O)Nc4ccc(C(=O)N5CCN(C(=O)C[N+]6(C)CCC(C(N)=O)C6)CC5)c(Cl)c4)n3C)c(F)c2F)c(C)n1 (stereo not drawn) [Example C7, N-[4-[4-[2-(3-carbamoyl-1-methyl-pyrrolidin-1-ium-1-yl)acetyl]piperazine-1-carbonyl]-3-chloro-phenyl]-5-[2,3-difluoro-4-[1-(2-methoxyethyl)-3-methyl-pyrazol-4-yl]phenyl]-1-methyl-imidazole-2-carboxamide; formate]"

# Same assay, conditions: Acinetobacter baumannii, ATCC17961, 16 h, read-out: ATCC 17961 IC90
row,SMILES,IC90
1,"COCCn1ncc(-c2ccc(-c3cnc(C(=O)Nc4ccc(C(=O)N5CCN(C(=O)C6CCN(CCS(N)(=O)=O)CC6)CC5)c(Cl)c4)n3C)c(F)c2F)c1C [Example B33, N-[3-chloro-4-[4-[1-(2-sulfamoylethyl)piperidine-4-carbonyl]piperazine-1-carbonyl]phenyl]-5-[2,3-difluoro-4-[1-(2-methoxyethyl)-5-methyl-pyrazol-4-yl]phenyl]-1-methyl-imidazole-2-carboxamide]",820 nM
2,"COCCn1ncc(-c2ccc(-c3cnc(C(=O)Nc4ccc(C(=O)N5CCN(C(=O)C[N+](C)(C)C)CC5)c(Cl)c4)n3C)c(F)c2F)c1C [Example A8, [2-[4-[2-chloro-4-[[5-[2,3-difluoro-4-[1-(2-methoxyethyl)-5-methyl-pyrazol-4-yl]phenyl]-1-methyl-imidazole-2-carbonyl]amino]benzoyl]piperazin-1-yl]-2-oxo-ethyl]-trimethyl-ammonium; 2,2,2-trifluoroacetate]",53 nM
3,"COc1ccc(NC(=O)Cn2cc(-c3ccc(-c4cnc(C(=O)Nc5ccc(C(=O)N6CCN(C(=O)C7CC[N+](C)(C)CC7)CC6)c(Cl)c5)n4C)c(F)c3F)c(C)n2)nn1 [Example L4, N-[3-chloro-4-[4-(1,1-dimethylpiperidin-1-ium-4-carbonyl)piperazine-1-carbonyl]phenyl]-5-[2,3-difluoro-4-[1-[2-[(6-methoxypyridazin-3-yl)amino]-2-oxo-ethyl]-3-methyl-pyrazol-4-yl]phenyl]-1-methyl-imidazole-2-carboxamide; formate]",106 nM
4,"COCCn1cc(-c2ccc(-c3cnc(C(=O)Nc4ccc(C(=O)N5CCN(C(=O)C6CC[N+](C)(C)CC6)CC5)c(Cl)c4)n3C)c(F)c2F)c(C)n1 [Example A1, N-[3-chloro-4-[4-(1,1-dimethylpiperidin-1-ium-4-carbonyl)piperazine-1-carbonyl]phenyl]-5-[2,3-difluoro-4-[l-(2-methoxyethyl)-3-methyl-pyrazol-4-yl]phenyl]-1-methyl-imidazole-2-carboxamide; formate]",120 nM
